Measured values as given in patent publication EP2019099A1, “Dpp-IV inhibitors” (Santhera Pharmaceuticals (Schweiz) AG, priority 2007, dated 2009).

Target: T1, DPP-IV (Homo sapiens, UniProt P27487)
T1 construct: Soluble human DPP-IV lacking the transmembrane anchor (Gly31-Pro766); Pre-Pro-alpha-mating factor leader (secretion fusion) (N, cleaved yes); made in house
Experiment: Inhibition of DPP-IV peptidase activity, continuous fluorimetric assay (Gly-Pro-AMC cleavage)
Type: biochemical, human and porcine
Details: 50 pM DPP-IV, 16 µM substrate Gly-Pro-AMC, pH 7.4, 25 °C, values grouped in 2 classes
Description: Inhibition of DPP-IV peptidase activity was monitored with a continuous fluorimetric assay. This assay is based on the cleavage of the substrate Gly-Pro-AMC (Bachem) by DPP-IV, releasing free AMC. The assay is carried out in 96-well microtiterplates. In a total volume of 100 µL, compounds are preincubated with 50 pM DPP-IV employing a buffer containing 10mM Hepes, 150mM NaCl, 0.005% Tween 20 (pH 7.4). The reaction is started by the addition of 16 µM substrate and the fluorescence of liberated AMC is detected for 10 minutes at 25 °C with a fluorescence reader (BMG-Fluostar; BMG-Technologies) using an excitation wavelength of 370 nm and an emission wavelength of 450 nm. The final concentration of DMSO is 1 %. The inhibitory potential of the compounds were determined.
Soluble human DPP-IV lacking the transmembrane anchor (Gly31-Pro766) was expressed in a recombinant YEAST-strain as Pre-Pro-alpha-mating fusion. The secreted product (rhuDPP-IV-Gly31-Pro766) was purified from fermentation broth (>90% purity).
In table 1 are listed the IC50 values for inhibition of DPP-IV peptidase activity determined in assays as described above. The IC50 values were grouped in 2 classes: a ≤ 100 nM; b ≥101 nM and ≤ 1000 nM.

T1 sequence (P27487 31-766): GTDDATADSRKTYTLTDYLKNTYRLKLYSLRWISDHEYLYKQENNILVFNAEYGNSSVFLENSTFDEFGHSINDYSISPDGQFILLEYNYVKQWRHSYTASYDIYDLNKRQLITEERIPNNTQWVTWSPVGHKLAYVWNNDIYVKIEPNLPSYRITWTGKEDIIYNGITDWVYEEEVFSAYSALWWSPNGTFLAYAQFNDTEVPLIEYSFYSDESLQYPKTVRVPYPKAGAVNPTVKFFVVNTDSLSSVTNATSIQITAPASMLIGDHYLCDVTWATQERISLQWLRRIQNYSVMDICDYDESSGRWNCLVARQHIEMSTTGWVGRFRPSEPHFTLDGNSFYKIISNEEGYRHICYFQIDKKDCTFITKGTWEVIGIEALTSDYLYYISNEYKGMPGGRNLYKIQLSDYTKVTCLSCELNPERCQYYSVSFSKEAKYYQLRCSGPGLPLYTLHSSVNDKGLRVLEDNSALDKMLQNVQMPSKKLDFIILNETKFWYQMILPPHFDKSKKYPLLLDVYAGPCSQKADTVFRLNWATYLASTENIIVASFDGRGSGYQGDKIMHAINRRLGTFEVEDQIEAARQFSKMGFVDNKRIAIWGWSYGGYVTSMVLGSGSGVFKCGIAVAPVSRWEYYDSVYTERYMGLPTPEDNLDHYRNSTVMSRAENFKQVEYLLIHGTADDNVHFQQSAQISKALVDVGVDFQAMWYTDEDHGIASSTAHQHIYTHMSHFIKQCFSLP

Row | IC50 [nM] | SMILES
1 | ≤ 100 | N[C@H](Cc1cc(F)c(F)cc1F)C1CCN(C(=O)c2cnc(C(F)(F)F)nc2C2CC2)CC1 [Example 4]
2 | ≤ 100 | CC(C)c1ncc(C(=O)N2CCC([C@H](N)Cc3cc(F)c(F)cc3F)CC2)c(C2CC2)n1 [Example 5]
3 | ≤ 100 | Cc1nc(C(F)(F)F)ncc1C(=O)N1CCC([C@H](N)Cc2cc(F)c(F)cc2F)CC1 [Example 2, {4-[(R)-1-Amino-2-(2,4,5-trifluoro-phenyl)-ethyl]-piperidin-1-yl}-(4-methyl-2-trifluoromethylpyrimidin-5-yl)-methanone]
4 | ≤ 100 | Cc1ncc(C(=O)N2CCC([C@H](N)Cc3cc(F)c(F)cc3F)CC2)c(C(F)(F)F)n1 [Example 6]

Further lines, the compound ahead of its results:

Row | SMILES | IC50 [nM]
5 | Cc1nc(N)ncc1C(=O)N1CCC([C@H](N)Cc2cc(F)c(F)cc2F)CC1 [Example 7] | ≤ 100
6 | N[C@H](Cc1cc(F)c(F)cc1F)C1CCN(C(=O)c2cnc(-c3ccccn3)nc2C(F)(F)F)CC1 [Example 8] | ≤ 100
7 | Cc1ncc(C(=O)N2CCC([C@H](N)Cc3cc(F)c(F)cc3F)CC2)c(C)n1 [Example 1, {4-[(R)-1-Amino-2-(2,4,5-trifluoro-phenyl)-ethyl]-piperidin-1-yl}-(2,4-dimethyl-pyrimidin-5-yl)-methanone] | ≤ 100
8 | Cc1nc(-c2ccccc2)ncc1C(=O)N1CCC([C@H](N)Cc2cc(F)c(F)cc2F)CC1 [Example 9] | ≤ 100
